Experimental findings from ChEMBL document CHEMBL5329224, “Structure-Based Design and Evaluation of Reversible KRAS G13D Inhibitors” (ACS Med Chem Lett, 2024) are described below.

Broadly, the IC50 is the concentration that inhibits the measured activity by half. The Vdss is a proportionality between amount in the body and measured concentration, not a real space. In general, pKa refers to the negative logarithm of the acid dissociation constant. High values mean a weaker acid or stronger base, low ones a stronger acid or weaker base.

Molecules are shown by their SMILES.

One data set deals with GTPase KRas (Homo sapiens, UniProt P01116, G13D). The experiment in a line: Inhibition of Biotinylated KRAS G13D mutant (unknown origin) incubated for 20 mins in presence of BODIPY-GDP by HTRF assay. On the technique in general: Time-resolved FRET reads energy transfer from a long-lived donor to a nearby acceptor.
Data set [1] in a line: Selectivity ratio of IC50 for inhibition of Biotinylated KRAS G13D mutant (unknown origin) to IC50 for inhibition of Biotinylated wild type KRAS (unknown origin).
The subject of another data set is HCT-116. In words: Antiproliferative activity against human HCT-116 cells assessed as cell growth inhibition incubated for 7 days by Cell Titer-Glo luminescent assay. The data set is classed as functional, cell-based. Conditions: HCT-116, 168 h. (In general: In ATP-based viability assays light output follows the ATP content of the culture.)
Data set [2] can be described thus: Volume of distribution at steady state in CD-1 mouse at 1 mg/kg,iv measured upto 9 hrs by LC-MS/MS analysis. The class given is ADME, organism-based. The conditions noted are these: in vivo.
Data set [3] can be described thus: Half life in CD-1 mouse at 1 mg/kg,iv measured upto 9 hrs by LC-MS/MS analysis. Conditions: in vivo. The class given is ADME, organism-based.
A short description of data set [4]: Dissociation constant, pKa of compound. The data set is classed as physicochemical.

GTPase KRas, sequence (P01116 whole entry G13D): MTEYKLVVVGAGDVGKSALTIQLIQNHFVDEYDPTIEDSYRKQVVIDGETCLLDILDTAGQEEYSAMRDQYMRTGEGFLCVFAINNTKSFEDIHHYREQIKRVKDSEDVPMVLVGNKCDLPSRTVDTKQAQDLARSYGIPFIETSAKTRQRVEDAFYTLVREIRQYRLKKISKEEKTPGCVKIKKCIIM

Take `Cc1cc(N)nc(-c2cc3nc(OC[C@@H]4CCCN4C)nc4c3c(c2Cl)OC[C@@H]2CN(C(=O)C3CC35CNC5)CCN42)c1C(F)(F)F` (mixture of isomers): the half-maximal inhibitory concentration (IC50) at GTPase KRas worked out at 2.4 µM. Also, the Ratio IC50 in data set [1] is 1.3.
The corresponding values for `Cc1cc(N)nc(-c2cc3nc(OC[C@@H]4CCCN4C)nc4c3c(c2Cl)OC[C@@H]2CN(C(=O)C[C@H]3CCC35CNC5)CCN42)c1C(F)(F)F` are 3.5 µM and 1.1.
The corresponding values for `Cc1cc(N)nc(-c2cc3nc(OC[C@@H]4CCCN4C)nc4c3c(c2Cl)OC[C@@H]2CN(C(=O)CC[C@@H]3CCCCN3)CCN42)c1C(F)(F)F` are 1.7 µM and 2.5.
The corresponding values for `C=C1CN2CCC[C@@]2(COc2nc(N3CCN(C(=O)/C=C/c4cc(C5CCN(C)CC5)c(C)cn4)C[C@@H]3C)c3cc(Cl)c(-c4nc(N)cc(C)c4C(F)(F)F)c(F)c3n2)C1` are 0.34 µM and 15.
As for `Cc1cc(N)nc(-c2cc3nc(OC[C@@H]4CCCN4C)nc4c3c(c2Cl)OC[C@@H]2CN(C(=O)[C@H](C)N(C)C)CCN42)c1C(F)(F)F`, the IC50 at GTPase KRas turned out to be 8.2 µM. In data set [1], the Ratio IC50 amounted to 0.94.
Taken in the same sequence, the figures for `C=C1CN2CCC[C@@]2(COc2nc3c4c(c(Cl)c(-c5nc(N)cc(C)c5C(F)(F)F)cc4n2)OC[C@@H]2CN(C(=O)/C=C/c4nccc5c4CN(C)CC5)CCN32)C1` were 0.049 µM and 0.88.
Regarding `Cc1cc(N)nc(-c2cc3nc(OC[C@@H]4CCCN4C)nc4c3c(c2Cl)OC[C@@H]2CN(C(=O)C3CCC5(CNC5)O3)CCN42)c1C(F)(F)F` (mixture of isomers), the concentration for half-maximal inhibition (IC50) at GTPase KRas is 1.6 µM. Moreover, the Ratio IC50 in data set [1] was determined as 2.5.
Regarding `C=C1CN2CCC[C@@]2(COc2nc3c4c(c(Cl)c(-c5nc(N)cc(C)c5C(F)(F)F)cc4n2)OC[C@@H]2CN(C(=O)/C=C/c4nccc5c4CNCC5)CCN32)C1`, at GTPase KRas, the IC50 is 0.013 µM. Besides, the Ratio IC50 in data set [1] was 7.3.
The corresponding values for `Cc1cc(N)nc(-c2cc3nc(OC[C@@H]4CCCN4C)nc4c3c(c2Cl)OC[C@@H]2CN(C(=O)CC3CC5(CCC5)CN3)CCN42)c1C(F)(F)F` (mixture of isomers) are 9 µM and 1.1.
The corresponding values for `Cc1cc(N)nc(-c2cc3nc(OC[C@@H]4CCCN4C)nc4c3c(c2Cl)OC[C@@H]2CN(C(=O)C[C@@H]3CCNC3)CCN42)c1C(F)(F)F` are 2.6 µM and 2.1.
Taken in the same sequence, the figures for `C=C1CN2CCC[C@@]2(COc2nc(N3CCN(C(=O)/C=C/c4cc(CNC)c(C)cn4)C[C@@H]3C)c3cc(Cl)c(-c4nc(N)cc(C)c4C(F)(F)F)c(F)c3n2)C1` were 0.5 µM and 9.6.
With `C=C1CN2CCC[C@@]2(COc2nc3c4c(c(Cl)c(-c5nc(N)cc(C)c5C(F)(F)F)c(F)c4n2)OC[C@@H]2CN(C(=O)/C=C/c4nccc5c4CNCC5)CCN32)C1`, the half-inhibitory concentration (IC50) on GTPase KRas was found to be 0.0015 µM; in the data set with HCT-116 it was 6.1 µM. The volume of distribution (Vdss) in data set [2] is 0.42 L/kg. In data set [3], the t1/2 came out at 3.2 h.
`Cc1cc(N)nc(-c2cc3nc(OC[C@@H]4CCCN4C)nc4c3c(c2Cl)OC[C@@H]2CN(C(=O)C3CC35CCNCC5)CCN42)c1C(F)(F)F` (mixture of isomers): on GTPase KRas, the IC50 worked out at 2.4 µM. Also, in data set [1], the Ratio IC50 worked out at 2.1.
Taken in the same sequence, the figures for `Cc1cc(N)nc(-c2cc3nc(OC[C@@H]4CCCN4C)nc4c3c(c2Cl)OC[C@@H]2CN(C(=O)CC3CCNCC3)CCN42)c1C(F)(F)F` were 4.8 µM and 2.
With `Cc1cc(N)nc(-c2cc3nc(OC[C@@H]4CCCN4C)nc4c3c(c2Cl)OC[C@@H]2CN(C(=O)/C=C/c3nccc5c3CNCC5)CCN42)c1C(F)(F)F`, the IC50 at GTPase KRas amounted to 0.18 µM. For the same molecule, the Ratio IC50 in data set [1] was 6.1.
Taken in the same sequence, the figures for `COC1CC(N)(C(=O)N2CCN3c4nc(OC[C@@H]5CCCN5C)nc5cc(-c6nc(N)cc(C)c6C(F)(F)F)c(Cl)c(c45)OC[C@@H]3C2)C1` (mixture of isomers) were 0.88 µM and 1.5.
With `C=C1CN2CCC[C@@]2(COc2nc(N3CCN(C(=O)/C=C/c4cccc5c4CNCC5)C[C@@H]3C)c3cc(Cl)c(-c4nc(N)cc(C)c4C(F)(F)F)c(F)c3n2)C1`, the figures for the IC50 on GTPase KRas and in the data set with HCT-116 were 0.69 µM and 2.1 µM, respectively. For the same molecule, in data set [2], the Vdss was 0.9 L/kg. Further, the t1/2 in data set [3] is 7.6 h.
In the case of `C=C1CN2CCC[C@@]2(COc2nc(N3CCN(C(=O)/C=C/c4cc(CN5CCOCC5)ccn4)C[C@@H]3C)c3cc(Cl)c(-c4nc(N)cc(C)c4C(F)(F)F)c(F)c3n2)C1`, the IC50 at GTPase KRas was determined as 0.0041 µM. Further, the Ratio IC50 in data set [1] stood at 1.2. This molecule also came in with a pKa in data set [4] of 5.4.
In the case of `C=C1CN2CCC[C@@]2(COc2nc(N3CCN(C(=O)/C=C/c4cccc5c4CN4CCC5C4)C[C@@H]3C)c3cc(Cl)c(-c4nc(N)cc(C)c4C(F)(F)F)c(F)c3n2)C1` (stereo in doubt; form 2) [listing 1 of 2 here], the Ratio IC50 in data set [1] was 27.
In the case of `Cc1cc(N)nc(-c2cc3nc(OC[C@@H]4CCCN4C)nc4c3c(c2Cl)OC[C@@H]2CN(C(=O)CC[C@H]3CCCCN3)CCN42)c1C(F)(F)F`, the IC50 at GTPase KRas was 2 µM. Besides, in data set [1], the Ratio IC50 was 2.3.
In the case of `C=C1CN2CCC[C@@]2(COc2nc(N3CCN(C(=O)/C=C/c4cccc5c4CN4CCC5C4)C[C@@H]3C)c3cc(Cl)c(-c4nc(N)cc(C)c4C(F)(F)F)c(F)c3n2)C1` (stereo in doubt; form 1) [listing 1 of 2 here], at GTPase KRas, the half-maximal inhibitory concentration (IC50) came to 0.41 µM.
As for `C=C1CN2CCC[C@@]2(COc2nc(N3CCN(C(=O)/C=C/c4cc(CN(C)C)c(C)cn4)C[C@@H]3C)c3cc(Cl)c(-c4nc(N)cc(C)c4C(F)(F)F)c(F)c3n2)C1`, the IC50 at GTPase KRas amounted to 0.52 µM. Further, in data set [1], the Ratio IC50 came out at 9.2.
As for `Cc1cc(N)nc(-c2cc3nc(OC[C@@H]4CCCN4C)nc4c3c(c2Cl)OC[C@@H]2CN(C(=O)C#CC3CCNC3)CCN42)c1C(F)(F)F` (mixture of isomers), the IC50 on GTPase KRas was 1.6 µM. Moreover, the Ratio IC50 in data set [1] came to 2.3.
Taken in the same sequence, the figures for `Cc1cc(N)nc(-c2cc3nc(OC[C@@H]4CCCN4C)nc4c3c(c2Cl)OC[C@@H]2CN(C(=O)CCC3CCNC3)CCN42)c1C(F)(F)F` (mixture of isomers) were 2.1 µM and 2.
Taken in the same sequence, the figures for `Cc1cc(N)nc(-c2cc3nc(OC[C@@H]4CCCN4C)nc4c3c(c2Cl)OC[C@@H]2CN(C(=O)C3CCNCC3)CCN42)c1C(F)(F)F` were 3.2 µM and 2.2.
`Cc1cc(N)nc(-c2cc3nc(OC[C@@H]4CCCN4C)nc4c3c(c2Cl)OC[C@@H]2CN(C(=O)C3(N)CC3)CCN42)c1C(F)(F)F`: the IC50 on GTPase KRas was determined as 0.55 µM. The Ratio IC50 in data set [1] stood at 1.8.
Taken in the same sequence, the figures for `Cc1cc(N)nc(-c2cc3nc(OC[C@@H]4CCCN4C)nc4c3c(c2Cl)OC[C@@H]2CN(C(=O)CC[C@@]3(C)CCCN3)CCN42)c1C(F)(F)F` were 1.9 µM and 2.4.
In the case of `Cc1cc(N)nc(-c2c(Cl)c3c4c(ncnc4c2F)N2CCN(C(=O)/C=C/c4nccc5c4CNCC5)C[C@H]2CO3)c1C(F)(F)F`, the IC50 at GTPase KRas was 2.7 µM. Further, the Ratio IC50 in data set [1] amounted to 5.9.
Taken in the same sequence, the figures for `Cc1cc(N)nc(-c2cc3nc(OC[C@@H]4CCCN4C)nc4c3c(c2Cl)OC[C@@H]2CN(C(=O)CCC3(N)CCOC3)CCN42)c1C(F)(F)F` (mixture of isomers) were 1.3 µM and 2.5.
Take `C=C1CN2CCC[C@@]2(COc2nc(N3CCN(C(=O)/C=C/c4cccc5c4CNC(C)(C)C5)C[C@@H]3C)c3cc(Cl)c(-c4nc(N)cc(C)c4C(F)(F)F)c(F)c3n2)C1`: the half-inhibitory concentration (IC50) at GTPase KRas amounted to 0.46 µM. Further, in data set [1], the Ratio IC50 turned out to be 16.
The corresponding values for `Cc1cc(N)nc(-c2cc3nc(OC[C@@H]4CCCN4C)nc4c3c(c2Cl)OC[C@@H]2CN(C(=O)CCN)CCN42)c1C(F)(F)F` are 2.7 µM and 2.5.
Taken in the same sequence, the figures for `Cc1cc(N)nc(-c2cc3nc(OC[C@@H]4CCCN4C)nc4c3c(c2Cl)OC[C@@H]2CN(C(=O)C3CC(N)CCO3)CCN42)c1C(F)(F)F` (mixture of isomers) were 14 µM and 0.41.
On to `C=C1CN2CCC[C@@]2(COc2nc(N3CCN(C(=O)/C=C/c4cc(CNC)ccn4)C[C@@H]3C)c3cc(Cl)c(-c4nc(N)cc(C)c4C(F)(F)F)c(F)c3n2)C1`, for which, at GTPase KRas, the concentration for half-maximal inhibition (IC50) was determined as 0.53 µM. Further, the Ratio IC50 in data set [1] amounted to 5.7. In data set [4], the pKa was determined as 8.4.
As to `Cc1cc(N)nc(-c2cc3nc(OC[C@@H]4CCCN4C)nc4c3c(c2Cl)OC[C@@H]2CN(C(=O)[C@@H]3CC[C@H]3N)CCN42)c1C(F)(F)F`, the IC50 on GTPase KRas came out at 3 µM. In addition, in data set [1], the Ratio IC50 was found to be 1.5.
Consider `C=C1CN2CCC[C@@]2(COc2nc(N3CCN(C(=O)/C=C/c4cccc5c4CN4CCC5C4)C[C@@H]3C)c3cc(Cl)c(-c4nc(N)cc(C)c4C(F)(F)F)c(F)c3n2)C1` (stereo in doubt; form 1) [listing 2 of 2 here], for which the Ratio IC50 in data set [1] was 29.
In the case of `C=C1CN2CCC[C@@]2(COc2nc(N3CCN(C(=O)/C=C/c4cccc5c4CN4CCC5C4)C[C@@H]3C)c3cc(Cl)c(-c4nc(N)cc(C)c4C(F)(F)F)c(F)c3n2)C1` (stereo in doubt; form 2) [listing 2 of 2 here], the IC50 at GTPase KRas is 0.55 µM.
